{"source": "patent US20160022751A1", "about": "“NOVEL COMPOSITION FOR TREATING ALZHEIMER'S DISEASE AND IMPROVING COGNITIVE FUNCTION OF ALZHEIMER'S PATIENTS” (GANGNEUNG-WONJU NATIONAL UNIVERSITY INDUSTRY ACADEMY …, priority 2014, published 2016)", "key": {"caveolin1": {"system": "caveolin1", "experiment": "Caveolin1 mRNA expression in HMO6 human microglial cells (qPCR)", "assay_type": "cell-based", "conditions": "Aβ42 (5 μM) and/or Rg3 (2.5 or 5 μg/ml), 24 h (FIG. 15A-B)", "method": "FIG. 15 is a graph showing a change in the expression of caveolin-1, caveolin-2, clathrin, neprilysin (NEP), insulin-degrading enzyme (IDE) according to treating Aβ and/or ginsenoside Rg3 to HMO6 human microglial cells. HMO6 cells were plated on 35 mm cell culture plates or chamber slides and Aβ42 (5 μM) and/or Rg3 (2.5 or 5 μg/ml) were treated for 24 h. Then, the mRNA expression was determined by quantitative RT-PCR. The expression of caveolin (A-B), clathrin (C) which are endocytosis-related genes and NEP (D) and IDE (E) which are genes encoding Aβ-degrading enzymes were compared depending on the presence or absence of Rg3/Aβ42. The results are shown as mean±SD. * P<0.05, ** P<0.01, *** P<0.001. […]\n(§1) Total RNA extracts from HMO6 cells or perfused brain tissue were prepared using the Trizol method (Invitrogen). cDNA was synthesized from RNA by reverse transcription of 1 μg total RNA using the Improm-II reverse transcription system (Promega, Wis., USA) and oligo dT primers in a total volume of 20 μl. […] Relative sample expression levels were calculated using Rotor-Gene 6000 Series Software 1.7 and were expressed relative to β-actin for mice or glyceraldehyde 3-phosphate dehydrogenase for HMO6 cells and corrected for between-run variability. Data for the experimental samples are expressed as a percentage of the internal control gene. […]"}, "SRA": {"system": "SRA", "experiment": "In vivo SRA mRNA expression in brain tissues (RT-PCR)", "conditions": "mice administrated with Rg3 (FIG. 24A)", "method": "Total RNA extracts from HMO6 cells or perfused brain tissue were prepared using the Trizol method (Invitrogen). cDNA was synthesized from RNA by reverse transcription of 1 μg total RNA using the Improm-II reverse transcription system (Promega, Wis., USA) and oligo dT primers in a total volume of 20 μl. PCR amplification was performed using the primers listed in Table 1 (Bioneer, Korea). qPCR reactions were run on a Rotor-Gene 6000 (Corbett Research, Sydney, Australia) using a SensiMix™ SYBR Hi-ROX Kit (Bioline, UK) in 20 μl reaction mixtures. Each real-time-PCR master mix contained 10 μl 2× enzyme master mix, 7 μl RNase free water, 1 μl of each primer (10 pM each), and 1 μl diluted template. The PCR was performed with an initial pre-incubation step for 15 min at 95° C., followed by 45 cycles of 95° C. for 15 s, annealing at 52° C. for 15 s, and extension at 72° C. for 10 s. […] Relative sample expression levels were calculated using Rotor-Gene 6000 Series Software 1.7 and were expressed relative to β-actin for mice or glyceraldehyde 3-phosphate dehydrogenase for HMO6 cells and corrected for between-run variability. Data for the experimental samples are expressed as a percentage of the internal control gene. […]"}, "Aβ42": {"system": "Aβ42", "experiment": "Morris water maze test in Aβ42-infused animals", "assay_type": "in vivo", "conditions": "Aβ42 rats administered Rg3 (FIG. 25)", "method": "Male BALB/c mice (10 weeks old) were purchased from Samtaco (Korea), and were adapted to laboratory conditions (temperature: 20±2° C., relative humidity: 50%, light/dark cycle: 12 h) for 1 week. Five-week-old male Sprague-Dawley rats were obtained from Daehan-Biolink (Korea) for learning and memory testing. The animals (n=5/group) were maintained at a constant temperature (23±2° C.), relative humidity, 55±10%, and 12-h light/dark cycle. The animals were fed a standard rodent chow and purified water ad libitum. Lyophilized Aβ42 (0.5 mg, Bachem Torrance, USA) was resuspended in PBS (pH 7.4) by shaking for 7 days at room temperature to prepare the fibrillar-aggregated Aβ42 (fAβ42). At 10 weeks of age, mice were anesthetized, and 1 μl fAβ42 (350 μM stock concentration) was stereotaxically injected unilaterally into the parietal cortex (anterior 1.7 mm, lateral 1 mm, and ventral 1 mm to the bregma above the hippocampus within 1 min) (Mohajeri et al., J. Biol. Chem., 277: 35460-35465, 2002)\nThe present inventor performed learning and memory tests using rats in order to investigate whether Rg3 can ameliorate symptoms of Alzheimer's model animals in deed. […] The latency time of stay in the light room from lights-on was recorded following an electric shock (1 mA for 2 s) in the dark compartment. […] The mean time spent to escape onto the platform was recorded."}, "NEP": {"system": "NEP", "experiment": "NEP mRNA expression in HMO6 human microglial cells (qPCR)", "assay_type": "cell-based", "method": "HMO6 human microglial cell line was kindly provided by Dr. SU Kim (Chung-Ang University, Korea). HMO6 cells were grown in Dulbecco's Modified Eagle's Medium (DMEM) (Hyclone, USA) supplemented with 10% fetal bovine serum, 100 U/ml penicillin, and 100 μg/ml streptomycin (Invitrogen, USA). Cultures were maintained under 5% CO2 at 37° C. in tissue culture flasks. Cells were grown to >90% confluency and subjected to no more than 20 cell passages. Medium was changed every 2-3 days. Subconfluent cells were harvested and seeded at a density of 5×10^5 cells or 5×10^6 cells in poly-L-lysine-coated 35-mm or 60-mm culture plates. […]\nas §1"}}}
{"smiles": "CC(C)=CCC[C@](C)(O)[C@H]1CC[C@]2(C)[C@@H]1[C@H](O)C[C@@H]1[C@@]3(C)CC[C@H](O[C@@H]4O[C@H](CO)[C@@H](O)[C@H](O)[C@H]4O[C@@H]4O[C@H](CO)[C@@H](O)[C@H](O)[C@H]4O)C(C)(C)[C@@H]3CC[C@]12C", "note": "[ginsenoside Rg3]", "values": [{"measurement": "caveolin1-mediated Aβ42 endocytosis (caveolin mRNA)", "setting": "caveolin1", "result": "promoted Aβ42 uptake into HMO6 cells via a caveolin1 and clathrin-mediated endocytic mechanism"}, {"measurement": "expression of SRA mRNA in brain tissues", "setting": "SRA", "result": "increased"}, {"measurement": "learning and memory functions, Morris water-maze", "setting": "Aβ42", "result": "maintained learning and memory functions at 4-5 weeks"}, {"measurement": "NEP mRNA", "setting": "NEP; HMO6 cells, Aβ42 (5 μM) and/or Rg3 (2.5 or 5 μg/ml), 24 h (FIG. 15D)", "result": "increased significantly"}, {"measurement": "NEP mRNA expression", "setting": "NEP; Rg3-treated HMO6 cells (FIG. 14)", "result": "dose-dependently increased"}]}
